Laboratory results published in patent publication US7109193B2, “Tricyclic diazepines tocolytic oxytocin receptor antagonists” (Wyeth, priority 2001, dated 2006).

Molecular target: T1, human vasopressin V1a receptor subtype (Homo sapiens, UniProt P37288)
T1 construct: host or cells: CHO cells (pZeoSV vector for the Thibonnier line)
Test: Vasopressin binding in Chinese Hamster Ovary cell membranes expressing human vasopressin V1a subtype receptors
Conditions: 100 nM, CHO cell membranes, [3H]Manning ligand, values without parentheses
Procedure, shortened: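 Membranes from CHO cells expressing human V1a receptor were incubated with [3H]Manning ligand (added as 20 μL of 8 nM) in pH 7.4 Tris buffer with MgCl2, BSA and protease inhibitors, 60 min at room temperature. Bound radioactivity was counted after filtration; values are percent inhibition at a stated concentration or IC50.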

T1 sequence (P37288 whole entry): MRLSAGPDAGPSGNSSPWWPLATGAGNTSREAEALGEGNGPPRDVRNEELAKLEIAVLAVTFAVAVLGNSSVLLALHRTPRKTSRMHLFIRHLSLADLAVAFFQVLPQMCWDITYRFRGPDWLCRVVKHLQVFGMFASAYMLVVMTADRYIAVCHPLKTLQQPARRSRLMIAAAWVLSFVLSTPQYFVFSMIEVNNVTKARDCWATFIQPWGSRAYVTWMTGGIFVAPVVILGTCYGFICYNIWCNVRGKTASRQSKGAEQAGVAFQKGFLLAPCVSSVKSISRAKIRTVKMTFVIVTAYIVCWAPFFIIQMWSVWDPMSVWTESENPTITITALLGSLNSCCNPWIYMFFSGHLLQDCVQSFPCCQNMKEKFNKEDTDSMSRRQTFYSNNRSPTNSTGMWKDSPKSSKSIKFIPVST

Compound | inhibition at 0.1 µM [%]
CN(C)CCCN1CCN(C(=O)c2ccc3n2Cc2ccccc2N(C(=O)c2ccc(-c4cccc5ccccc45)cc2Cl)C3)CC1 [Example 256, {10-[2-Chloro-4-(1-naphthyl)benzoyl]-10,11-dihydro-5H-pyrrolo[2,1-c][1,4]benzodiazepin-3-yl}{4-[3-(dimethylamino)propyl]-1-piperazinyl}methanone] | 7
Cc1ccccc1-c1ccc(C(=O)N2Cc3ccc(C(=O)N4CCN(C)CC4)n3Cc3ccccc32)cc1C [Example 50, {10-[(2,2′-Dimethyl[1,1′-biphenyl]-4-yl)carbonyl]-10,11-dihydro-5H-pyrrolo[2,1-c][1,4]benzodiazepin-3-yl}(4-methyl-1-piperazinyl)methanone] | 40
COc1cc(C(=O)N2Cc3ccc(C(=O)n4ccnc4)n3Cc3ccccc32)ccc1-c1cccc2ccccc12 [Example 291, 1H-Imidazol-1-yl-{10-[3-methoxy-4-(1-naphthyl)benzoyl]-10,11-dihydro-5H-pyrrolo[2,1-c][1,4]benzodiazepin-3-yl}methanone] | 2
COc1cc(C(=O)N2Cc3ccc(C(=O)N4CCC(N5CCCC5)CC4)n3Cc3ccccc32)ccc1-n1c(C)ccc1C [Example 313, {10-[4-(2,5-Dimethyl-1H-pyrrol-1-yl)-3-methoxybenzoyl]-10,11-dihydro-5H-pyrrolo[2,1-c][1,4]benzodiazepin-3-yl}[4-(1-pyrrolidinyl)-1-piperidinyl]methanone] | 2
COc1ccccc1-c1ccc(C(=O)N2Cc3ccc(C(=O)N[C@H]4CN5CCC4CC5)n3Cc3ccccc32)cc1C [Example 298, N-[(3R)-1-Azabicyclo[2.2.2]oct-3-yl]-10-[(2′-methoxy-2-methyl[1,1′-biphenyl]-4-yl)carbonyl]-10,11-dihydro-5H-pyrrolo[2,1-c][1,4]benzodiazepine-3-carboxamide] | 20
Cc1ccccc1-c1ccc(C(=O)N2Cc3ccc(C(=O)N4CCCN(C)CC4)n3Cc3ccccc32)cc1C [Example 63, {10-[(2,2′-Dimethyl[1,1′-biphenyl]-4-yl)carbonyl]-10,11-dihydro-5H-pyrrolo[2,1-c][1,4]benzodiazepin-3-yl}(4-methyl-1,4-diazepan-1-yl)methanone] | 57
CN1CCN(C(=O)c2ccc3n2Cc2ccccc2N(C(=O)c2ccc(-c4cccc5ccccc45)cc2Cl)C3)CC1 [Example 58, {10-[2-Chloro-4-(1-naphthyl)benzoyl]-10,11-dihydro-5H-pyrrolo[2,1-c][1,4]benzodiazepin-3-yl}(4-methyl-1-piperazinyl)methanone] | 5
COc1cc(C(=O)N2Cc3ccc(C(=O)N4CCN(C)CC4)n3Cc3ccccc32)ccc1-n1c(C)ccc1C [Example 306, {10-[4-(2,5-Dimethyl-1H-pyrrol-1-yl)-3-methoxybenzoyl]-10,11-dihydro-5H-pyrrolo[2,1-c][1,4]benzodiazepin-3-yl}(4-methyl-1-piperazinyl)methanone] | 0
COc1cc(C(=O)N2Cc3ccc(C(=O)N4CCC(N5CCCCC5)CC4)n3Cc3ccccc32)ccc1-n1c(C)ccc1C [Example 311, {10-[4-(2,5-Dimethyl-1H-pyrrol-1-yl)-3-methoxy-benzoyl]-10,11-dihydro-5H-pyrrolo[2,1-c][1,4]benzodiazepin-3-yl}[4-(1-piperidinyl)-1-piperidinyl]-methanone] | -5
C=CCN1CCN(C(=O)c2ccc3n2Cc2ccccc2N(C(=O)c2ccc(-n4c(C)ccc4C)c(OC)c2)C3)CC1 [Example 318, (4-Allyl-1-piperazinyl){10-[4-(2,5-dimethyl-1H-pyrrol-1-yl)-3-methoxybenzoyl]-10,11-dihydro-5H-pyrrolo[2,1-c][1,4]benzodiazepin-3-yl}methanone] | 5
COc1cccc(-c2cc(OC)c(C(=O)N3Cc4ccc(C(=O)N5CCCN(C)CC5)n4Cc4ccccc43)cc2Cl)c1 [Example 67, {10-[(6-Chloro-3,3′-dimethoxy[1,1′-biphenyl]-4-yl)carbonyl]-10,11-dihydro-5H-pyrrolo[2,1-c][1,4]benzodiazepin-3-yl}(4-methyl-1,4-diazepan-1-yl)methanone] | -4
COc1cc(-c2ccccc2C)c(Cl)cc1C(=O)N1Cc2ccc(C(=O)N3CCN(CCCN(C)C)CC3)n2Cc2ccccc21 [Example 251, {10-[(6-Chloro-3-methoxy-2′-methyl[1,1′-biphenyl]-4-yl)carbonyl]-10,11-dihydro-5H-pyrrolo[2,1-c][1,4]benzodiazepin-3-yl}{4-[3-(dimethylamino)propyl]-1-piperazinyl}methanone] | 6
COc1ccccc1-c1ccc(C(=O)N2Cc3ccc(C(=O)N[C@@H](CCCCNC(=O)OC(C)(C)C)C(N)=O)n3Cc3ccccc32)cc1OC [Example 303, tert-Butyl (5S)-6-amino-5-[({10-[(2,2′-dimethoxy[1,1′-biphenyl]-4-yl)carbonyl]-10,11-dihydro-5H-pyrrolo[2,1-c][1,4]benzodiazepin-3-yl}carbonyl)amino]-6-oxohexylcarbamate] | -4
COc1ccccc1-c1ccc(C(=O)N2Cc3ccc(C(=O)N4CCCN(C)CC4)n3Cc3ccccc32)cc1OC [Example 69, {10-[(2,2′-Dimethoxy[1,1′-biphenyl]-4-yl)carbonyl]-10,11-dihydro-5H-pyrrolo[2,1-c][1,4]benzodiazepin-3-yl}(4-methyl-1,4-diazepan-1-yl)methanone] | 8

More lines, now with the values ahead:

inhibition at 0.1 µM [%] | Compound
62 | Cc1ccccc1-c1ccc(C(=O)N2Cc3ccc(C(=O)N4CCN(CCCN(C)C)CC4)n3Cc3ccccc32)cc1C [Example 247, {4-[3-(Dimethylamino)propyl]-1-piperazinyl}{10-[(2,2′-dimethyl[1,1′-biphenyl]-4-yl)carbonyl]-10,11-dihydro-5H-pyrrolo[2,1-c][1,4]benzodiazepin-3-yl}methanone]
46 | Cc1ccccc1-c1ccc(C(=O)N2Cc3ccc(C(=O)NCCCN(C)C)n3Cc3ccccc32)cc1C [Example 73, N-[3-(Dimethylamino)propyl]-10-[(2,2′-dimethyl[1,1′-biphenyl]-4-yl)carbonyl]-10,11-dihydro-5H-pyrrolo[2,1-c][1,4]benzodiazepine-3-carboxamide]
53 | COc1cccc(-c2ccc(C(=O)N3Cc4ccc(C(=O)N5CCN(CCCN(C)C)CC5)n4Cc4ccccc43)cc2OC)c1 [Example 255, {10-[(2,3′-Dimethoxy[1,1′-biphenyl]-4-yl)carbonyl]-10,11-dihydro-5H-pyrrolo[2,1-c][1,4]benzodiazepin-3-yl}{4-[3-(dimethylamino)propyl]-1-piperazinyl}methanone]
7 | COc1cc(C(=O)N2Cc3ccc(C(=O)NCCCn4ccnc4)n3Cc3ccccc32)ccc1-n1c(C)ccc1C [Example 312, 10-[4-(2,5-Dimethyl-1H-pyrrol-1-yl)-3-methoxybenzoyl]-N-[3-(1H-imidazol-1-yl)propyl]-10,11-dihydro-5H-pyrrolo[2,1-c][1,4]benzodiazepine-3-carboxamide]
47 | COc1cc(C(=O)N2Cc3ccc(C(=O)n4ccnc4)n3Cc3ccccc32)ccc1-c1ccccc1C [Example 290, 1H-Imidazol-1-yl-{10-[(2-methoxy-2′-methyl[1,1′-biphenyl]-4-yl)carbonyl]-10,11-dihydro-5H-pyrrolo[2,1-c][1,4]benzodiazepin-3-yl}methanone]
17 | COc1cccc(-c2ccc(C(=O)N3Cc4ccc(C(=O)N5CCN(CCCN(C)C)CC5)n4Cc4ccccc43)cc2C)c1 [Example 248, {4-[3-(Dimethylamino)propyl]-1-piperazinyl}{10-[(3′-methoxy-2-methyl[1,1′-biphenyl]-4-yl)carbonyl]-10,11-dihydro-5H-pyrrolo[2,1-c][1,4]benzodiazepin-3-yl}methanone]
8 | COc1ccccc1-c1ccc(C(=O)N2Cc3ccc(C(=O)NCCCN(C)C)n3Cc3ccccc32)cc1C [Example 72, N-[3-(Dimethylamino)propyl]-10-[(2′-methoxy-2-methyl[1,1′-biphenyl]-4-yl)carbonyl]-10,11-dihydro-5H-pyrrolo[2,1-c][1,4]benzodiazepine-3-carboxamide]
12 | COc1cccc(-c2ccc(C(=O)N3Cc4ccc(C(=O)NCCCN(C)C)n4Cc4ccccc43)cc2C)c1 [Example 74, N-[3-(Dimethylamino)propyl]-10-[(3′-methoxy-2-methyl[1,1′-biphenyl]-4-yl)carbonyl]-10,11-dihydro-5H-pyrrolo[2,1-c][1,4]benzodiazepine-3-carboxamide]
19 | COc1cccc(-c2ccc(C(=O)N3Cc4ccc(C(=O)N5CCCN(C)CC5)n4Cc4ccccc43)cc2OC)c1 [Example 70, {10-[(2,3′-Dimethoxy[1,1′-biphenyl]-4-yl)carbonyl]-10,11-dihydro-5H-pyrrolo[2,1-c][1,4]benzodiazepin-3-yl}(4-methyl-1,4-diazepan-1-yl)methanone]
6 | COc1cccc(-c2ccc(C(=O)N3Cc4ccc(C(=O)n5ccnc5)n4Cc4ccccc43)cc2C)c1 [Example 289, 1H-Imidazol-1-yl-{10-[(3′-methoxy-2-methyl[1,1′-biphenyl]-4-yl)carbonyl]-10,11-dihydro-5H-pyrrolo[2,1-c][1,4]benzodiazepin-3-yl}methanone]
27 | COc1ccccc1-c1ccc(C(=O)N2Cc3ccc(C(=O)NCCCN(C)C)n3Cc3ccccc32)cc1 [Example 75, N-[3-(Dimethylamino)propyl]-10-[(2′-methoxy[1,1′-biphenyl]-4-yl)carbonyl]-10,11-dihydro-5H-pyrrolo[2,1-c][1,4]benzodiazepine-3-carboxamide]
-12 | COc1cc(C(=O)N2Cc3ccc(C(=O)NCCCN(C)C)n3Cc3ccccc32)ccc1-n1c(C)ccc1C [Example 308, N-[3-(Dimethylamino)propyl]-10-[4-(2,5-dimethyl-1H-pyrrol-1-yl)-3-methoxybenzoyl]-10,11-dihydro-5H-pyrrolo[2,1-c][1,4]benzodiazepine-3-carboxamide]
